What all share (format): biochemical
The target in test [1] is T1, puromycin-sensitive aminopeptidase (APP-S) (Homo sapiens, UniProt P55786). The test can be described thus: chromogenic hydrolysis kinetics at […] nm with purified recombinant enzyme.
In test [2] the target is T1, puromycin-sensitive aminopeptidase (APP-S). The test can be described thus: inhibition of purified recombinant APP-S hydrolysis of Ala-pNA/Val-pNA.
The target is the same in test [3].

The structures appear in SMILES notation. Read-outs that look alike come from different tables or passages of the source.

In general, Km refers to the substrate concentration at which the rate is half of its maximum.

T1 sequence (P55786 whole entry): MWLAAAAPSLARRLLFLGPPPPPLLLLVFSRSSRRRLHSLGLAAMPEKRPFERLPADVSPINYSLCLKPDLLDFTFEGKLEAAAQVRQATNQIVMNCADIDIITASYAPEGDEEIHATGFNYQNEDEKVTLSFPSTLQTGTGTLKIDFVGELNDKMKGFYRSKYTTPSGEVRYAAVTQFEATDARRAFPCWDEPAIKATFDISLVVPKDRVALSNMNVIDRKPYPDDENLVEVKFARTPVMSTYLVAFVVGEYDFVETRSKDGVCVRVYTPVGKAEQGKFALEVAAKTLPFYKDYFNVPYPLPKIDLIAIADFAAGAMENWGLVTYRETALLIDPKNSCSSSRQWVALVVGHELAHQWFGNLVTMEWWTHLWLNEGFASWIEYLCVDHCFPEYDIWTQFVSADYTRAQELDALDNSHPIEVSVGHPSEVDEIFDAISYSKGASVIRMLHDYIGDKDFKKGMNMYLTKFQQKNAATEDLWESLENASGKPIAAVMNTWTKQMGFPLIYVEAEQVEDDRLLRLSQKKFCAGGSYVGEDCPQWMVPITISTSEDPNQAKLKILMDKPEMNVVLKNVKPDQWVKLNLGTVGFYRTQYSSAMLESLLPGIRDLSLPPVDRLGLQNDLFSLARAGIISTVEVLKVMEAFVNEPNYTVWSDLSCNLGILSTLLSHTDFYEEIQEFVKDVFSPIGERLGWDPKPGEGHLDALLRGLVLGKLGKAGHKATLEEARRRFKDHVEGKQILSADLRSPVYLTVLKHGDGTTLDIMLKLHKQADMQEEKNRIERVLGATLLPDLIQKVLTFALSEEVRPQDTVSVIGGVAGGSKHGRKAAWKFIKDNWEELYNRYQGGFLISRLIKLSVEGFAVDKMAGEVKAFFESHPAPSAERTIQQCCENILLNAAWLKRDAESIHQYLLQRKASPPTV

Consider `C[C@H](N)C(=O)Nc1ccc([N+](=O)[O-])cc1` [Ala-pNA], for which the Km in test [1] was found to be 510 ± 140 µM.
For `CC(C)[C@H](N)C(=O)Nc1ccc([N+](=O)[O-])cc1` [Val-pNA], in test [1], the Km worked out at 280 ± 190 µM.
In the case of `CC(C)C[C@H](NC(=O)[C@@H](O)[C@H](N)Cc1ccccc1)C(=O)O` [bestatin], the “inhibition of purified recombinant APP-S hydrolysis of Ala-pNA/Val-pNA (405 nm)” value in test [2] is given as “APP-S hydrolysis of the model substrates was completely inhibited by the addition of bestatin”.
In the case of `COC(=O)[C@H](CO[P@@]1(=O)COC(Cn2ccc(N)nc2=O)CO1)NC(=O)[C@@H](N)C(C)C` (stereo partly drawn) [compound 2, Methyl (S)-2-((S)-2-Amino-3-methyl-butyrylamino)-3-[(S)-5-(4-amino-2-oxo-2H-pyrimidin-1-ylmethyl)-2-oxido-1,4,2-dioxaphosphinan-2-yloxy]propanoate], in test [3], the Km came to 850 ± 330 µM.

Values taken from paper PMC2830364 (Antiviral research, 2009).
